Patent US4843062A, “N-acyl-N-napthoylglycines as aldose reductase inhibitors” (American Home Products Corporation, priority 1987, dated 1989)
Where two headings read alike, the source gives them in different places.

Tests used:
[1] = tested on: sciatic nerve (galactitol accumulation); assay: Galactitol (dulcitol) accumulation in sciatic nerve of galactosemic rats; format: in vivo, rat (male, Sprague-Dawley); conditions: four days
Source text: (§1) Such experiments are exemplified hereinbelow after the listing of the following general comments pertaining to these experiments.
(§2) (a) Four or more groups of six male rats, 50-70 g, Sprague-Dawley strain, were used. The first group, the control group, was fed a mixture of laboratory chow (rodent Laboratory Chow, Purina) and glucose at 20% (w/w %) concentration. […] The test compound was either admixed to the diet or administered by gavage. In experiments involving compound administration in the diet, the average dose administered was calculated from the actual food intake of the animals in each group. The concentration of galactose in the diet of the treated groups was the same as that for the untreated galactosemic group.
(§3) (b) After four days, the animals were killed by decapitation. The eyeballs were removed and punctured with a razor blade; the freed lenses were rolled gently on filter paper and weighed. The sciatic nerves were dissected as completely as possible and weighed. Both tissues when frozen can be kept up to two weeks before being analyzed for galactitol.
(§4) (c) The polyol determination was performed by a modification of the procedure of M. Kraml and L. Cosyns, Clin. Biochem., 2,373 (1969). Only two minor reagent changes were made: (a) The rinsing mixture was an aqueous 5% (w/v) trichloroacetic acid solution and (b) the stock solution was prepared by dissolving 25 mg of dulcitol in 100 mL of an aqueous trichloroacetic acid solution. [N.B.: For each experiment the average value found in the tissue from rats fed the glucose diet was subtracted from the individual values found in the corresponding tissue in galactose-fed rats to obtain the amount of polyol accumulated.] […] In the present case the procedure of Hayman and Kinoshita was modified in that the final chromatography step was omitted in the preparation of the enzyme from bovine lens.
(§5) The figures under L, N, and D represent the percentage decrease of galactitol accumulation in the tissues of the lens, sciatic nerve, and diaphragm, respectively, for treated rats as compared to untreated rats.

[2] = target: T1, aldose reductase (Bos taurus, UniProt P16116); assay: Aldose reductase inhibition in vitro (enzyme preparation from bovine lens, modified Hayman and Kinoshita procedure); format: biochemical; conditions: for inhibition at 10 µM / inhibition at 1 µM: read-out: % Inhibition IN VITRO; for inhibition at 0.1 µM / % Inhibition IN VITRO: 10^-7 M
T1 construct: preparation of the enzyme from bovine lens; from tissue; host or cells: bovine lens
Experimental: as §4, with “Only” for “(c) The polyol determination was performed by a modification of the procedure of M. Kraml and L. Cosyns, Clin. Biochem., 2,373 (1969). Only”

[3] = tested on: lens (galactitol accumulation); assay: Galactitol (dulcitol) accumulation in lens of galactosemic rats; format: in vivo, rat (male, Sprague-Dawley); conditions: four days
Source text: The aldose reductase inhibiting property of the compounds of this invention and the utilization of the compounds in preventing, diminishing and alleviating diabetic complications are demonstrable in experiments using galactosemic rats, see Dvornik et al, Science, 182, 1146 (1973). Such experiments are exemplified hereinbelow after the listing of the following general comments pertaining to these experiments.
(a) Four or more groups of six male rats, 50-70 g, Sprague-Dawley strain, were used. The first group, the control group, was fed a mixture of laboratory chow (rodent Laboratory Chow, Purina) and glucose at 20% (w/w %) concentration. The untreated galactosemic group and the drug-treated groups were fed a similar diet in which galactose is substituted for glucose. The test compound was either admixed to the diet or administered by gavage. In experiments involving compound administration in the diet, the average dose administered was calculated from the actual food intake of the animals in each group. The concentration of galactose in the diet of the treated groups was the same as that for the untreated galactosemic group.
as §3
(c) The polyol determination was performed by a modification of the procedure of M. Kraml and L. Cosyns, Clin. Biochem., 2,373 (1969). Only two minor reagent changes were made: (a) The rinsing mixture was an aqueous 5% (w/v) trichloroacetic acid solution and (b) the stock solution was prepared by dissolving 25 mg of dulcitol in 100 mL of an aqueous trichloroacetic acid solution. [N.B.: For each experiment the average value found in the tissue from rats fed the glucose diet was subtracted from the individual values found in the corresponding tissue in galactose-fed rats to obtain the amount of polyol accumulated.] The aldose reductase inhibiting effects of the compounds of formula (I) were also tested by employing an in vitro testing procedure similar to that described by S. Hayman and J. H. Kinoshita, J. Biol. Chem., 240,877 (1965). In the present case the procedure of Hayman and Kinoshita was modified in that the final chromatography step was omitted in the preparation of the enzyme from bovine lens.
as §5

[4] = tested on: diaphragm (galactitol accumulation); assay: Galactitol (dulcitol) accumulation in diaphragm of galactosemic rats; format: in vivo, rat (male, Sprague-Dawley); conditions: four days
Source text: as §1, §2, §4, §5

| Structure (SMILES) | inhibition at 10 µM ([2]; 10^-5 M) | inhibition at 1 µM ([2]; 10^-6 M) | inhibition at 0.1 µM [2] | further results |
| --- | --- | --- | --- | --- |
| COc1ccc2c(C(=O)N(CC(=O)O)C(=O)OCc3ccccc3)cccc2c1C(F)(F)F | 95% | 89% | 66% | % Lowering dulcitol accumulation IN VIVO (%)N ([1]; 67 mg/kg): N.S.; % Lowering dulcitol accumulation IN VIVO (%)L ([3]; 67 mg/kg): N.S.; % Lowering dulcitol accumulation IN VIVO (%)D ([4]; 67 mg/kg): N.S. |
| CCCOC(=O)N(CC(=O)O)C(=O)c1cccc2c(C(F)(F)F)c(OC)ccc12 [Example 3] | 95% | 90% | 81% | % Lowering dulcitol accumulation IN VIVO (%)N ([1]; 48 mg/kg): N.S.; inhibition at 0.04 µM ([2]; 4 × 10^-8 M): 48%; % Lowering dulcitol accumulation IN VIVO (%)L ([3]; 48 mg/kg): N.S.; % Lowering dulcitol accumulation IN VIVO (%)D ([4]; 48 mg/kg): N.S. |
| COc1ccc2c(C(=O)N(CC(=O)O)C(=O)OC(C)C)cccc2c1C(F)(F)F [Example 4] | – | – | – | % Lowering dulcitol accumulation IN VIVO (%)N ([1]; dose not given (N.S.)): N.S.; % Lowering dulcitol accumulation IN VIVO (%)L ([3]; dose not given (N.S.)): N.S.; % Lowering dulcitol accumulation IN VIVO (%)D ([4]; dose not given (N.S.)): N.S. |
| COc1ccc2c(C(=O)N(CC(=O)O)C(=O)OCC(C)(C)C)cccc2c1C(F)(F)F [Example 5] | 90% | 64% | 18% | % Lowering dulcitol accumulation IN VIVO (%)N ([1]; 105 mg/kg): N.S.; % Lowering dulcitol accumulation IN VIVO (%)L ([3]; 105 mg/kg): N.S.; % Lowering dulcitol accumulation IN VIVO (%)D ([4]; 105 mg/kg): N.S. |
| COc1ccc2c(C(=O)N(CC(=O)O)C(=O)OCc3ccc(Cl)c([N+](=O)[O-])c3)cccc2c1C(F)(F)F [Example 7] | 95% | 89% | 49% | % Lowering dulcitol accumulation IN VIVO (%)N ([1]; 107 mg/kg): N.S.; % Lowering dulcitol accumulation IN VIVO (%)L ([3]; 107 mg/kg): N.S.; % Lowering dulcitol accumulation IN VIVO (%)D ([4]; 107 mg/kg): N.S. |
| COc1ccc2c(C(=O)N(C=O)CC(=O)O)cccc2c1C(F)(F)F [Example 8, N-Fromyl-N-[[6-methoxy-5-(trifluoromethyl)-1-naphthalenyl]carbonyl]glycine] | 95% | – | 89% | % Lowering dulcitol accumulation IN VIVO (%)N ([1]; 107 mg/kg): 51%; inhibition at 1 µM [2]: 96% |
| COc1ccc2c(C(=O)N(CC(=O)O)C(C)=O)cccc2c1C(F)(F)F [Example 9] | – | 91% | 61% | % Lowering dulcitol accumulation IN VIVO (%)N ([1]; 100 mg/kg): 36%; inhibition at 10 µM [2]: 96%; % Lowering dulcitol accumulation IN VIVO (%)L ([3]; 100 mg/kg): N.S. |
| COc1ccc2c(C(=O)N(CC(=O)O)C(=O)c3ccccc3)cccc2c1C(F)(F)F [Example 10, N-Benzoyl-N-[[6-methoxy-5-(trifluoromethyl)-1-naphthalenyl]carbonyl]glycine] | 90% | 62% | 15% | % Lowering dulcitol accumulation IN VIVO (%)N ([1]; 50 mg/kg): N.S.; % Lowering dulcitol accumulation IN VIVO (%)L ([3]; 50 mg/kg): N.S.; % Lowering dulcitol accumulation IN VIVO (%)D ([4]; 50 mg/kg): N.S. |
| COc1ccc2c(C(=O)N(CC(=O)O)C(=O)N(C)C)cccc2c1C(F)(F)F [Example 11, N-[(Dimethylamino)carbonyl]-N-[[6-methoxy-5-(trifluoromethyl)-1-naphthalenyl]carbonyl]glycine] | 22% | 3% | – | % Inhibition IN VITRO [2]: N.S. |
| COC(=O)N(CC(=O)O)C(=O)c1cccc2c(Br)cccc12 [Example 12] | 85% | 54% | 10% | % Lowering dulcitol accumulation IN VIVO (%)N ([1]; 102 mg/kg): N.S.; % Lowering dulcitol accumulation IN VIVO (%)L ([3]; 102 mg/kg): N.S. |
| O=C(O)CN(C(=O)OCc1ccccc1)C(=O)c1cccc2c(Br)cccc12 [Example 13] | 87% | 57% | 12% | – |
| O=CN(CC(=O)O)C(=O)c1cccc2c(Br)cccc12 [Example 14] | 90% | 73% | 22% | % Lowering dulcitol accumulation IN VIVO (%)N ([1]; 104 mg/kg): N.S; % Lowering dulcitol accumulation IN VIVO (%)L ([3]; 104 mg/kg): N.S. |
| CC(=O)N(CC(=O)O)C(=O)c1cccc2c(Br)cccc12 [Example 15] | 82% | 41% | 7% | % Lowering dulcitol accumulation IN VIVO (%)N ([1]; 112 mg/kg): N.S.; % Lowering dulcitol accumulation IN VIVO (%)L ([3]; 112 mg/kg): N.S.; % Lowering dulcitol accumulation IN VIVO (%)D ([4]; 112 mg/kg): N.S. |
| O=C(O)CN(C(=O)c1ccccc1)C(=O)c1cccc2c(Br)cccc12 [Example 16] | 83% | 58% | 10% | % Lowering dulcitol accumulation IN VIVO (%)N ([1]; 111 mg/kg): N.S.; % Lowering dulcitol accumulation IN VIVO (%)L ([3]; 111 mg/kg): N.S.; % Lowering dulcitol accumulation IN VIVO (%)D ([4]; 111 mg/kg): N.S. |
| CN(C)C(=O)N(CC(=O)O)C(=O)c1cccc2c(Br)cccc12 [Example 17] | 23% | 4% | – | % Inhibition IN VITRO [2]: N.S. |
| COC(=O)N(CC(=O)O)C(=S)c1cccc2c(C(F)(F)F)c(OC)ccc12 [Example 18a, N-[[6-Methoxy-5-(trifluoromethyl)-1-naphthalenyl]thioxomethyl]-N-[(methoxy)carbonyl]glycine] | – | 88% | 29% | % Lowering dulcitol accumulation IN VIVO (%)N ([1]; 51 mg/kg): N.S.; inhibition at 10 µM [2]: 94%; % Lowering dulcitol accumulation IN VIVO (%)L ([3]; 51 mg/kg): N.S. |
| COc1ccc2c(C(=S)N(C)CC(=O)O)cccc2c1C(F)(F)F [Example 18b, N-[[6-methoxy-5-(trifluoromethyl)-1-napthalenyl]thioxomethyl]-N-methyglycine, reference compound] | – | – | – | % Lowering dulcitol accumulation IN VIVO (%)L ([3]; 9 mg/kg): N.S. |
